What all share (experiment): biochemical
Format in all cases: binding
What all share (settings): for inhibition at 250 µM: 24 h, read-out: Binding percentage

The target of test [1] is HLA-DRB1*1302 (Homo sapiens, UniProt P01903+P01911, A100E/A169T/K41T/L162R/M171V/P40S/Q125H/Q178H/Q39Y/Q99D/R42S/S66N/T262R/V115G/W38E/Y61H).
Test [2] has as its target HLA-DRB1*0701 (Homo sapiens, UniProt P01903+P01911, A100R/A102G/A103Q/D57E/D86V/E43K/F76Y/K127E/L162R/M171V/P40G/Q125H/Q99D/R33Q/R42Y/R54Q/S133A/S66F/T210M/V115G/Y107V/Y59L/Y89S).
Test [3] has as its target T1, HLA-DRB1*0401 (Homo sapiens, UniProt P01903+P01911, A100K/A169T/F76Y/I96L/K127E/L162R/M171V/N62H/P40V/Q125Y/R42H/S133A/S149N/S66Y/V115G/V209L/W38E).
T1 construct: homozygous lymphoblastoid B-cell lines (International Histocompatibility Working Group); host or cells: human HLA-DRB1*0401 homozygous lymphoblastoid B-cell line

The target of test [4] is HLA-DRB1*1101 (Homo sapiens, UniProt P01903+P01911, A100R/A169T/A87E/I96F/K41T/L162R/M171V/P40S/Q125H/Q178H/Q39Y/Q99D/R42S/S66Y/T262R/V115G/W38E).

Ends that are not written are not given here.

Sequence of HLA-DRB1*1302 (P01903 26-254 limits assumed, other chains not shown): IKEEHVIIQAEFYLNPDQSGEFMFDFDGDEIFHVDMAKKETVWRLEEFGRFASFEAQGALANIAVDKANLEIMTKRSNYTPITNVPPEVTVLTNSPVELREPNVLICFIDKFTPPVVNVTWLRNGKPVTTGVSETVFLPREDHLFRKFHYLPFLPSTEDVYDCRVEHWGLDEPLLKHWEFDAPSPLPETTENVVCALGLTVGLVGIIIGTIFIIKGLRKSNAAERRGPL
Sequence of HLA-DRB1*1101 (P01903 26-254 limits assumed, other chains not shown): as above

For LFYVNLFIMSSLSRK [compound 39152], the 50% inhibitory concentration (IC50) (commonly the point on the concentration scale where inhibition reaches its midpoint) in test [1] came out at 8 µM; in test [3], 2.8 µM; in test [4], 1.9 µM. Further, the inhibition at 250 µM worked out at 94.7% in test [1], 11% in test [2], 65.8% in test [3] and 91.8% in test [4].
For MKLLQHIPANLLENI [compound 39153], the IC50 in test [1] came to 10.7 µM; in test [2], 7.5 µM; in test [3] it was 57 µM; in test [4], 52.1 µM. Besides, the inhibition at 250 µM in test [1] was determined as 91.9%; in test [2] it was 85.4%; in test [3] it was 61.2%; in test [4], 72.7%.
For the sequence LKFIVRGNNLKFLNN [compound 39154], the IC50 in test [1] came out at 6.5 µM. Besides, the inhibition at 250 µM in test [1] was 90.1%; in test [2], 43.7%; in test [3], 22.2%; in test [4], 24.9%.
With RGPVNYHFSNYMNLD [compound 39047], the inhibition at 250 µM in test [1] came out at 37.8%; in test [2], 90.4%; in test [3], 59.8%; in test [4], 0%. The half-inhibitory concentration (IC50) in test [2] was 6 µM; in test [3], 54.5 µM.

Source of the values: article PMC5962679 (Frontiers in Cellular and Infection Microbiology, 2018).
